Measurements: patent US20210267996A1, “Compounds for inhibition of inflammation” (Children`s Medical Center Corporation, priority 2018, published 2021)
Entries after “also recorded” stand apart in the source; their conditions may differ.

Legend:
human GSDMD-3C [1] = target: T1, human GSDMD-3C (Homo sapiens, UniProt P57764); assay: Liposome leakage assay, GSDMD-3C plus 3C protease; type: biochemical; conditions: GSDMD-3C plus 3C protease
T1 construct: other: GSDMD-3C plus 3C protease; fused on or other part: His6-MBP tag, removed by TEV before use; The engineered 3C site is cut in the well by 3C protease and sets free GSDMD-NT
Description: (§1) Liposome leakage assay: fluorogenic liposome leakage assay detects leakage of Tb^3+ from Tb^3+-loaded liposomes incubated with GSDMD and caspase-11 (See References 7 and 9). Liposome leakage was detected by an increase in fluorescence when Tb^3+ bound to dipicolinic acid (DPA) in Buffer C. […] The fluorescence intensity of the well was measured at 545 nm with an excitation of 276 nm 1 hr after addition of caspase-11 using a Perkin Elmer EnVision plate reader. The final percent inhibition was calculated as [(fluorescencetest compound−fluorescencenegative control)/(fluorescencepositive control−fluorescencenegative control)]×100, where a well with GSDMD without the test compound was used as positive control, and a well without caspase-11 was used as negative control.
(§2) [LC retention time. […] (b).
(§3) To determine the relative contribution of caspase-11 inhibition versus GSDMD inhibition by disulfiram in pore formation, the caspase cleavage site in GSDMD was replaced with the rhinovirus 3C protease site (GSDMD-3C) and the 3C protease was used instead of caspase-11 in the liposome leakage assay.

[2] = test system: caspase-1, GSDMD, and pro-IL-1β; assay: Caspase-1, GSDMD, pro-IL-1β cleavage and IL-1β secretion by immunoblot, THP-1; type: cell-based, human
IL-1β [3] = assay: IL-1β secretion by ELISA, THP-1 plus nigericin; type: cell-based, human; conditions: THP-1, 40 μM
Description: (§4) Measurement of cytokines: concentrations of IL-1 (3 in culture supernatants or mouse serum were measured by ELISA kit (R&D Systems) according to the manufacturer's instructions. […] The number of surviving cells was determined by CellTiter-Glo assay (FIGS. 4 and 6) and IL-1β in culture supernatants was assessed by ELISA (FIG. 8) 2 hrs later. […] The number of surviving cells was determined by CellTiter-Glo assay (FIGS. 5 and 7) and IL-1β in culture supernatants was assessed by ELISA (FIG. 9) 2.5 hrs later.

NLRP3, GSDMD and HMGB1 = assay: Peritoneal macrophages of LPS-challenged mice (immunoblot); type: in vivo, mouse; conditions: 6 hrs after LPS
Description: Drug administration and LPS-induced sepsis in mice. […] In the indicated group of mice in FIG. 5h, copper gluconate (0.15 mg/kg) was administered intraperitoneally 6 hr prior to the first injection of DSF. Sepsis was induced in C57BL/6 mice (8-10 weeks old) by intraperitoneal injection of LPS (E. coli O111:B4) at indicated concentrations. In some experiments, mice were treated with copper gluconate (0.15 mg/kg) or vehicle by intraperitoneal injection 5 hr before LPS challenge and then given DSF (50 mg/kg) intraperitoneally dissolved in sesame oil or vehicle 4 hr before and just before LPS challenge (15 mg/kg intraperitoneally). Peritoneal cells were collected by rinsing the peritoneal cavity with ice cold PBS containing 3% FBS 6 hr after LPS challenge. To measure cytokines, blood samples were collected by tail vein bleed 12 hr post LPS challenge and allowed to clot at room temperature. Sera obtained after centrifugation at 2,000×g for 10 min were analysed for inflammatory cytokines by ELISA.
Peritoneal macrophages were harvested 6 hrs later and analysed for NLRP3, GSDMD and HMGB1 by immunoblot.

C38A GSDMD = C38A GSDMD (Homo sapiens, UniProt P57764, C38A); assay: Liposome leakage assay, C38A GSDMD plus caspase-11; type: biochemical
Sequence of C38A GSDMD (P57764 whole entry C38A): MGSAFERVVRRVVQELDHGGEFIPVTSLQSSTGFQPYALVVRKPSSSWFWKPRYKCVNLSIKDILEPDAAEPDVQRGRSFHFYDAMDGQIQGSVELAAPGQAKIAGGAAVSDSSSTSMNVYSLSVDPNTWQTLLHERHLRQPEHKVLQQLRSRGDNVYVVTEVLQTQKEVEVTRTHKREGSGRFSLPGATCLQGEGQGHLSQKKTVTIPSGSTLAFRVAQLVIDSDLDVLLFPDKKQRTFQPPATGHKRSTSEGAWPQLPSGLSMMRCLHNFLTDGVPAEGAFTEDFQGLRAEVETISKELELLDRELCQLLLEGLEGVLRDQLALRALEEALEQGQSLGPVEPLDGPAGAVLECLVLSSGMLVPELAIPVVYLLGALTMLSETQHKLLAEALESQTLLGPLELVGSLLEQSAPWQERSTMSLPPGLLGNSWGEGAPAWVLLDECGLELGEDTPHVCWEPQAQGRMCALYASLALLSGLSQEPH

IL-1β [4] = assay: IL-1β secretion by ELISA, iBMDM with LPS transfection; type: cell-based, mouse; conditions: 40 μM
Description: as §4

mouse iBMDMs = assay: AIM2 inflammasome cell death, iBMDMs transfected with poly(dA:dT); type: cell-based; conditions: poly(dA:dT) transfection
human GSDMD-3C [5] = target: T2, human GSDMD-3C (Homo sapiens, UniProt P57764); assay: Pore reconstitution on nanodiscs, negative staining EM
T2 sequence (P57764 1-271 limits assumed): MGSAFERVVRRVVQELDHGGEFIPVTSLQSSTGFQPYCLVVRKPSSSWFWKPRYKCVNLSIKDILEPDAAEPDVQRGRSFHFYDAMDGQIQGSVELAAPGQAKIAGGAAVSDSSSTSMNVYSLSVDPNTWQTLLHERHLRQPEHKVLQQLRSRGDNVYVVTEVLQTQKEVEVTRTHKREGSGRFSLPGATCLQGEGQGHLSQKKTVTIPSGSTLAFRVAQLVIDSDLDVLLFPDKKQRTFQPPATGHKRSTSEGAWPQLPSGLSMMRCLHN
Description: To form GSDMD pores on the nanodiscs, purified human GSDMD-3C was incubated with 3C protease in the presence of nanodiscs for 6 hrs on ice. […] For negative staining electron microscopy, a 5-μl sample was placed onto a glow-discharged carbon-coated copper grid (Electron Microscopy Sciences), washed twice with Buffer A, stained with 1% uranyl formate for 1 min, and air-dried. The grids were imaged on the Tecnai G^2 Spirit BioTWIN electron microscope and recorded with an AMT 2 k CCD camera (Harvard Medical School Electron Microscopy Facility).
3C protease cleavage of the engineered GSDMD-3C liberates an active NT fragment.

HT-29 cells = assay: Necroptosis induced by TNFα, SMAC mimetic and z-VAD-fmk; type: cell-based; conditions: SMAC mimetic
Description: Inhibition was shown by cell survival, assessed by CellTiter-Glo ATP luminescence, and membrane permeabilization, assessed by uptake of the membrane-impermeable dye SYTOX Green.

C191A GSDMD = C191A GSDMD (Homo sapiens, UniProt P57764, C191A)
Sequence of C191A GSDMD (P57764 whole entry C191A): as the sequence (P57764 whole entry C38A) above, with A38C, C191A counted along it

[6] = target: T3, Alexa 488-labeled His-MBP-GSDMD (Homo sapiens, UniProt P57764); assay: Microscale thermophoresis (MST) binding assay
T3 construct: made in house; host or cells: E. coli BL21 (DE3)
T3 sequence (P57764 whole entry): as the sequence (P57764 whole entry C38A) above, with A38C counted along it
Description: Fluorescent protein labelling and microscale thermophoresis binding assay: His6-MBP-GSDMD was labeled with AlexaFluor-488 using the Molecular Probes protein labelling kit. Binding of inhibitors to GSDMD was evaluated using microscale thermophoresis (MST). Ligands (49 nM-150 μM) were incubated with purified AlexaFluor-488-labeled protein (80 nM) for 30 min in assay buffer (20 mM HEPES, 150 mM NaCl, 0.05% Tween 20). The sample was loaded into NanoTemper Monolith NT. 115 glass capillaries and MST carried out using 20% LED power and 40% MST power. Kd values were calculated using the mass action equation and NanoTemper software.
The test compounds were assessed for GSDMD binding by microscale thermophoresis (MST).

human GSDMD-3C [7] = target: T2, human GSDMD-3C; assay: Liposome leakage assay, GSDMD-3C plus 3C protease; type: biochemical; set-up: Human GSDMD-3C and mouse GSDMA3-3C mutants were constructed by QuikChange Mutagenesis (Agilent Technologies); fused on or other part: His6-MBP tag, removed by TEV before use; The engineered 3C site is cut in the well by 3C protease
Description: as §1, §2, §3

THP-1 cells = assay: Canonical inflammasome pyroptosis, LPS-primed THP-1 cells plus nigericin; type: cell-based, human; conditions: THP-1, nigericin
Description: Cell viability assay. […] Primed THP-1 cells were pretreated with each test compound for 1 hr before addition of 20 μM nigericin or medium as control. The number of surviving cells was determined by CellTiter-Glo assay 1.5 hrs later. The final percent cell viability was calculated using the formula [(luminescencetest compound−luminescencencenegative control)/(luminescencencepositive control−luminescencenegative control)]×100, where wells with only LPS were used as positive controls and wells treated with LPS and nigericin were used as negative controls.
Cells were verified to be free of mycoplasma contamination.
Cytotoxicity and cell viability assays: cell death and cell viability were determined by the lactate dehydrogenase release assay using the CytoTox 96 Non-Radioactive Cytotoxicity Assay kit (Promega) and by measuring ATP levels using the CellTiter-Glo Luminescent Cell Viability Assay (Promega), respectively, according to the manufacturer's instructions. Luminescence and absorbance were measured on a BioTek Synergy 2 plate reader.
In FIGS. 4, 6, and 8, PMA-differentiated LPS-primed human THP-1 were pre-treated with indicated concentrations of each compound for 1 h before adding nigericin or medium. The number of surviving cells was determined by CellTiter-Glo assay (FIGS. 4 and 6) and IL-1β in culture supernatants was assessed by ELISA (FIG. 8) 2 hrs later. […] In FIGS. 8 and 9, 40 μM concentration of test compounds were added. […] Graphs show the mean±s.d. and data shown are representative of three independent experiments. **P<0.01.

| Compound | IC50 (human GSDMD-3C [1]) | caspase-1, GSDMD, pro-IL-1β processing and IL-1β secretion ([2]; 1 μM with copper gluconate) | caspase-1, GSDMD, pro-IL-1β processing and IL-1β secretion ([2]; 1 μM without copper) | nigericin-induced IL-1β secretion (IL-1β [3]) | GSDMD processing in peritoneal macrophages (NLRP3, GSDMD and HMGB1) | NLRP3 priming in mice (NLRP3, GSDMD and HMGB1) | IC50 (C38A GSDMD) | LPS transfection-induced IL-1β secretion (IL-1β [4]) | cell death triggered by the AIM2 inflammasome (mouse iBMDMs) | effect on already assembled pores (human GSDMD-3C [5]; added after pore formation) | pore formation on nanodiscs (human GSDMD-3C [5]; pretreated before adding to nanodiscs) | necroptosis (HT-29 cells) | fold loss of liposome leakage inhibition, C191A versus WT GSDMD (C191A GSDMD) | binding to GSDMD according to MST [6] | inhibition of leakage by GSDMD-3C plus 3C protease versus GSDMD plus caspase-11 (human GSDMD-3C [7]) | inhibition of canonical inflammasome pyroptosis (THP-1 cells) |
| --- | --- | --- | --- | --- | --- | --- | --- | --- | --- | --- | --- | --- | --- | --- | --- | --- |
| CCN(CC)C(=S)SSC(=S)N(CC)CC [C-23, Tetraethylthiuram disulfide] | 520 ± 30 nM | completely blocked | had no effect | potency comparable to the pan-caspase inhibitor z-VAD-fmk | equally processed | did not inhibit NLRP3 priming in mice | ~300 nM | potency comparable to the pan-caspase inhibitor z-VAD-fmk | impaired cell death in a dose-dependent manner | did not disrupt already assembled pores | completely blocked | had no effect on necroptosis |  |  |  |  |
| Cc1ccc(S(=O)(=O)/C=C/C#N)cc1 [Bay 11-7082] |  |  |  |  |  |  |  |  |  |  |  |  | 2 fold | bound to GSDMD; also recorded: lower affinity | substantially less able to inhibit leakage | also inhibits the canonical inflammasome pathway; also recorded: more effective at inhibiting canonical inflammasome-dependent pyroptosis than disulfiram in the absence of copper |
